These results are taken from US20250197382A1, “KIF18A INHIBITOR” (WIGEN BIOMEDICINE TECHNOLOGY (SHANGHAI) CO., LTD., priority 2022, published 2025).

Structures are written as SMILES. Where only a bound is given, the exact number is not on record here.

In the experiment the target is Recombinant human KIF18A (1-467His-tagged) protein (Homo sapiens (Human), UniProt Q8NI77). The experiment in a line: KIF18A enzyme assay (microtubule-stimulated ATPase activity, ADP-Glo). Type of experiment: biochemical. The settings on record: 30 nM KIF18A, ATP 75 μM, read-out: inhibitory activity against KIF18A IC50. The method, boiled down: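 Baculovirus-expressed human KIF18A (1-467, His-tagged; 30 nM) preincubated 15 min at room temperature with compound (22-point 2-fold series) in pH 7.5 Tris buffer containing 30 μg/mL pig microtubules and 1 μM paclitaxel.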
Sequence of Recombinant human KIF18A (1-467His-tagged) protein (Q8NI77 1-467): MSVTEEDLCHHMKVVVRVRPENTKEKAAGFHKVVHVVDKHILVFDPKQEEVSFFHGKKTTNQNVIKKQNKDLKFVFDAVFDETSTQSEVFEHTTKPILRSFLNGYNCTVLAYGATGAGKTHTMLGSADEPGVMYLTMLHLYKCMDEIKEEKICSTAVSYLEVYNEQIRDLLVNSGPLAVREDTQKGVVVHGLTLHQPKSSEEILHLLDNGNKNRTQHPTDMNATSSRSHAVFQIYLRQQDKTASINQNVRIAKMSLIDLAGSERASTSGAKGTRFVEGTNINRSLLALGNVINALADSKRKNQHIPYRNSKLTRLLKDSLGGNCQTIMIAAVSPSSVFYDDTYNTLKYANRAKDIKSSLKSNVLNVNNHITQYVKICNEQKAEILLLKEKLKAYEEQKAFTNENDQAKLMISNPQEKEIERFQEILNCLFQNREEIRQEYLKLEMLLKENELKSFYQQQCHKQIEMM
Sequence of Recombinant human KIF18A (1-467His-tagged) protein (P02550 whole entry partner): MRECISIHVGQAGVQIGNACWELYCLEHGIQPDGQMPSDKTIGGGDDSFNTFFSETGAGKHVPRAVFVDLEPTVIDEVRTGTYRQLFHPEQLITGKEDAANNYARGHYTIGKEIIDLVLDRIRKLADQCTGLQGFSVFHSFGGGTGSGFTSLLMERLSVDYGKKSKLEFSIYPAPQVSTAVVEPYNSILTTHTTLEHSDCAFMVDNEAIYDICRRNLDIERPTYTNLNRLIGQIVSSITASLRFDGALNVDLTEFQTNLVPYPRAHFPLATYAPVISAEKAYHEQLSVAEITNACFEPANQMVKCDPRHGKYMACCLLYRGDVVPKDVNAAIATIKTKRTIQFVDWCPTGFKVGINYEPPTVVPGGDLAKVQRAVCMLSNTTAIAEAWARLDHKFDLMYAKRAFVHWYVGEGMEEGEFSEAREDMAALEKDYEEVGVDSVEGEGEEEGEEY
Sequence of Recombinant human KIF18A (1-467His-tagged) protein (P02554 whole entry partner): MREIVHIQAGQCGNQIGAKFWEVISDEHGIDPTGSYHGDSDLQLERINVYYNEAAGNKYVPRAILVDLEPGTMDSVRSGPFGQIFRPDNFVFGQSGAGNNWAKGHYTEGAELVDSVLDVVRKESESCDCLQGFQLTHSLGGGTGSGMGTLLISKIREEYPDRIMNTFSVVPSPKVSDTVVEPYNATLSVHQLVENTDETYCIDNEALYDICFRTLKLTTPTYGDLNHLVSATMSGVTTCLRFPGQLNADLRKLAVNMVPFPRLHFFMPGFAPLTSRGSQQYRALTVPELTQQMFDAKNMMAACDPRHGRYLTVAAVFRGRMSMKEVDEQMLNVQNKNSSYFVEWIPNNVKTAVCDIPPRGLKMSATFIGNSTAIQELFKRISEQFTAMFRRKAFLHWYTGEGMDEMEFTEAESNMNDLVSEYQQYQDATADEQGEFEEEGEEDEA
For orientation: In ADP-Glo the light output rises with the ADP produced.

On to `C[C@@H]1CN(c2cc(C(=O)Nc3ccc(NS(=O)(=O)[C@@H](C)CO)cc3N3CCC4(CC3)CC4)cc3ccoc23)CCO1` [Compound 175], for which the IC50 is at most 100 nM. The same measure for `C[C@@H]1CN(c2cc(C(=O)Nc3ccc(NS(=O)(=O)[C@H](C)CO)cc3N3CCC4(CC3)CC4)cc3ccoc23)CCO1` [Compound 176]: at most 100 nM. The same measure for `O=C(Nc1ccc(S(=O)(=O)NCCO)cc1N1CCC2(CC1)CC2)c1cc(N2CCC(F)(F)CC2)c2occc2c1` [Compound 177]: at most 100 nM; for `C[C@@H]1CN(c2cc(C(=O)Nc3ccc(S(=O)(=O)NCCO)cc3N3CCC4(CC3)CC4)cc3ccoc23)CCO1` [Compound 178]: at most 100 nM. The same measure for `C[C@H]1CN(c2cc(C(=O)Nc3ccc(S(=O)(=O)NCCO)cc3N3CCC4(CC3)CC4)cc3ccoc23)CCO1` [Compound 179]: at most 100 nM. With `O=C(Nc1ccc(S(=O)(=O)NCCO)cc1N1CCC2(CC1)CC2)c1cc(N2CC(F)(F)C2)c2occc2c1` [Compound 180], the concentration for half-maximal inhibition (IC50) is at most 100 nM. The same measure for `O=C(Nc1ccc(S(=O)(=O)NCCO)cc1N1CCC2(CC1)CC2)c1cc(OCCC(F)(F)F)c2occc2c1` [Compound 181]: at most 100 nM. Consider `O=C(Nc1ccc(S(=O)(=O)NCCO)cc1N1CCC2(CC1)CC2)c1cc(N2CCC3(CC3)C2)c2occc2c1` [Compound 182], for which the half-inhibitory concentration (IC50) was at most 100 nM. As to `O=C(Nc1ccc(S(=O)(=O)NCCO)cc1N1CCC2(CC1)CC2)c1cc(OC2CCC2)c2occc2c1` [Compound 183], the IC50 is at most 100 nM. The same measure for `CC1(F)CCN(c2cc(C(=O)Nc3ccc(S(=O)(=O)NCCO)cc3N3CCC4(CC3)CC4)cc3ccoc23)C1` (stereo not shown) [Compound 184]: at most 100 nM. The same measure for `O=C(Nc1ccc(S(=O)(=O)NCCO)cc1N1CCC2(CC1)CC2)c1cc(N2CCC(F)CC2)c2occc2c1` [Compound 185]: at most 100 nM; for `O=C(Nc1ccc(S(=O)(=O)NCCO)cc1N1CCC2(CC1)CC2)c1cc(N2CC3CC3C2)c2occc2c1` (stereo not shown) [Compound 186]: at most 100 nM. The same measure for `CC(C)(CO)Nc1cc(C(=O)Nc2ccc(S(=O)(=O)NCCO)cc2N2CCC3(CC2)CC3)cc2ccoc12` [Compound 187]: at most 100 nM; for `O=C(Nc1ccc(S(=O)(=O)NCCO)cc1N1CCC2(CC1)CC2)c1cc(N2CCOCC2)c2occc2c1` [Compound 188]: at most 100 nM.

As to `C[C@@H](CO)NS(=O)(=O)c1ccc(NC(=O)c2cc(N3CCC(F)(F)CC3)c3occc3c2)c(N2CCC3(CC2)CC3)c1` [Compound 189], the IC50 was at most 100 nM. For `C[C@H](CO)NS(=O)(=O)c1ccc(NC(=O)c2cc(N3CCC(F)(F)CC3)c3occc3c2)c(N2CCC3(CC2)CC3)c1` [Compound 190], the 50% inhibitory concentration (IC50) is at most 100 nM. Under `C[C@@H]1CN(c2cc(C(=O)Nc3ccc(S(=O)(=O)N[C@@H](C)CO)cc3N3CCC4(CC3)CC4)cc3ccoc23)CCO1` [Compound 191] stands at most 100 nM; under `C[C@H](CO)NS(=O)(=O)c1ccc(NC(=O)c2cc(N3CCO[C@H](C)C3)c3occc3c2)c(N2CCC3(CC2)CC3)c1` [Compound 192], at most 100 nM; under `O=C(Nc1cc2ccoc2c(N2CCC(F)(F)CC2)n1)c1ccc(NS(=O)(=O)CCO)cc1N1CCC2(CC1)CC2` [Compound 193], at most 100 nM. Under `C[C@@H]1CN(c2nc(NC(=O)c3ccc(NS(=O)(=O)CCO)cc3N3CCC4(CC3)CC4)cc3ccoc23)CCO1` [Compound 194] stands at most 100 nM; under `C[C@H]1CN(c2nc(NC(=O)c3ccc(NS(=O)(=O)CCO)cc3N3CCC4(CC3)CC4)cc3ccoc23)CCO1` [Compound 195], at most 100 nM. For the compound `O=C(Nc1cc2ccoc2c(N2CC(F)(F)C2)n1)c1ccc(NS(=O)(=O)CCO)cc1N1CCC2(CC1)CC2` [Compound 196], the IC50 was at most 100 nM.

Take `O=C(Nc1cc2ccoc2c(OCCC(F)(F)F)n1)c1ccc(NS(=O)(=O)CCO)cc1N1CCC2(CC1)CC2` [Compound 197]: the IC50 is at most 100 nM. In the case of `O=C(Nc1cc2ccoc2c(N2CCC3(CC3)C2)n1)c1ccc(NS(=O)(=O)CCO)cc1N1CCC2(CC1)CC2` [Compound 198], the IC50 is at most 100 nM. On to `O=C(Nc1cc2ccoc2c(OC2CCC2)n1)c1ccc(NS(=O)(=O)CCO)cc1N1CCC2(CC1)CC2` [Compound 199], for which the IC50 is at most 100 nM. The same measure for `CC1(F)CCN(c2nc(NC(=O)c3ccc(NS(=O)(=O)CCO)cc3N3CCC4(CC3)CC4)cc3ccoc23)C1` (stereo not shown) [Compound 200]: at most 100 nM; for `O=C(Nc1cc2ccoc2c(N2CCC(F)CC2)n1)c1ccc(NS(=O)(=O)CCO)cc1N1CCC2(CC1)CC2` [Compound 201]: at most 100 nM; for `O=C(Nc1cc2ccoc2c(N2CC3CC3C2)n1)c1ccc(NS(=O)(=O)CCO)cc1N1CCC2(CC1)CC2` (stereo not shown) [Compound 202]: at most 100 nM. Under `CC(C)(CO)Nc1nc(NC(=O)c2ccc(NS(=O)(=O)CCO)cc2N2CCC3(CC2)CC3)cc2ccoc12` [Compound 203] stands at most 100 nM.

With `O=C(Nc1cc2ccoc2c(N2CCOCC2)n1)c1ccc(NS(=O)(=O)CCO)cc1N1CCC2(CC1)CC2` [Compound 204], the IC50 was at most 100 nM. The same measure for `C[C@@H](CO)S(=O)(=O)Nc1ccc(C(=O)Nc2cc3ccoc3c(N3CCC(F)(F)CC3)n2)c(N2CCC3(CC2)CC3)c1` [Compound 205]: at most 100 nM; for `C[C@H](CO)S(=O)(=O)Nc1ccc(C(=O)Nc2cc3ccoc3c(N3CCC(F)(F)CC3)n2)c(N2CCC3(CC2)CC3)c1` [Compound 206]: at most 100 nM. Under `C[C@@H]1CN(c2nc(NC(=O)c3ccc(NS(=O)(=O)[C@@H](C)CO)cc3N3CCC4(CC3)CC4)cc3ccoc23)CCO1` [Compound 207] stands at most 100 nM; under `C[C@@H]1CN(c2nc(NC(=O)c3ccc(NS(=O)(=O)[C@H](C)CO)cc3N3CCC4(CC3)CC4)cc3ccoc23)CCO1` [Compound 208], at most 100 nM; under `O=C(Nc1cc2ccoc2c(N2CCC(F)(F)CC2)n1)c1ccc(S(=O)(=O)NCCO)cc1N1CCC2(CC1)CC2` [Compound 209], at most 100 nM. The same measure for `C[C@@H]1CN(c2nc(NC(=O)c3ccc(S(=O)(=O)NCCO)cc3N3CCC4(CC3)CC4)cc3ccoc23)CCO1` [Compound 210]: at most 100 nM; for `C[C@H]1CN(c2nc(NC(=O)c3ccc(S(=O)(=O)NCCO)cc3N3CCC4(CC3)CC4)cc3ccoc23)CCO1` [Compound 211]: at most 100 nM; for `O=C(Nc1cc2ccoc2c(N2CC(F)(F)C2)n1)c1ccc(S(=O)(=O)NCCO)cc1N1CCC2(CC1)CC2` [Compound 212]: at most 100 nM.

In the case of `O=C(Nc1cc2ccoc2c(N2CCC3(CC3)C2)n1)c1ccc(S(=O)(=O)NCCO)cc1N1CCC2(CC1)CC2` [Compound 214], the concentration for half-maximal inhibition (IC50) is at most 100 nM. Under `O=C(Nc1cc2ccoc2c(OC2CCC2)n1)c1ccc(S(=O)(=O)NCCO)cc1N1CCC2(CC1)CC2` [Compound 215] stands at most 100 nM; under `CC1(F)CCN(c2nc(NC(=O)c3ccc(S(=O)(=O)NCCO)cc3N3CCC4(CC3)CC4)cc3ccoc23)C1` (stereo not shown) [Compound 216], at most 100 nM. The same measure for `O=C(Nc1cc2ccoc2c(N2CCC(F)CC2)n1)c1ccc(S(=O)(=O)NCCO)cc1N1CCC2(CC1)CC2` [Compound 217]: at most 100 nM; for `CC(C)(CO)Nc1nc(NC(=O)c2ccc(S(=O)(=O)NCCO)cc2N2CCC3(CC2)CC3)cc2ccoc12` [Compound 219]: at most 100 nM.

The term IC50 denotes the concentration needed to halve the response being measured.
